From PMC5308254, “Bioactivity of Natural and Engineered Antimicrobial Peptides from Venom of the Scorpions Urodacus yaschenkoi and U. manicatus” (Toxins, 2017)
No end group written: not given here.

How the values were obtained:
[1] = Cytotoxicity, alamarBlue, BHK-21 cells; type: cell-based, hamster; conditions: hamster, 2 h at 37 °C, 0.1–100 µM, alamarBlue fluorescence, non-linear fit, concentration reducing viability by 50%, n ≥ 3, read-out: EC50 (effective cytotoxic concentration)
Procedure: (§1) Cytotoxicity was evaluated using the baby hamster kidney cell line (BHK-21) included in F2H®-Kit Basic (Chromotek, Planegg-Martinsried, Germany). The BHK-21 cells were grown in 25-cm^2 cell culture flasks (Greiner Bio One, Frickenhausen, Germany) containing Dulbecco’s Modified Eagle’s Medium (DMEM) supplemented with 4.5 g/L glucose, 110 mg/L sodium pyruvate and L-glutamine, and 10% fetal bovine serum (FBS), and were maintained in an NU-5810 incubator (ibs tecnomara, Fernwald, Germany) at 37 °C with a 5% CO2 atmosphere. The cells were subcultured at ~90% confluence by detaching with 0.25% trypsin and 0.03% EDTA (Sigma-Aldrich, St Louis, MO, USA). The AMPs were dissolved in water and diluted to final concentrations of 0.1, 1, 10 and 100 µM in DMEM.
(§2) BHK-21 cells were prepared and tested as previously described. Confluent cells were detached, counted and seeded at a concentration of 8.5 × 10^4 cell/mL in a 96-well culture plate (Greiner Bio One-Cell Star) 48 h before each experiment. The cells were rinsed with 100 µL PBS before adding 100 µL of the AMP solution and incubating for 2 h at 37 °C. The AMP solution was then removed and the cells were rinsed again with PBS before staining with 10% v/v alamarBlue™ Dye (Thermo Fisher Scientific, Schwerte, Germany) in DMEM for 1 h. The fluorescence of the metabolized alamarBlue™ Dye was measured in an Eon microplate reader using excitation and emission filters of 528 and 590 nm, respectively. DMEM and cells exposed to DMEM without AMPs were included as a blank reference and negative control, respectively. Four independent experiments were carried out for each AMP concentration in triplicate. To assess the percentage of viable cells compared to the control, the data were analyzed with GraphPad Prism v5.0 software using non-linear regression to fit the curve (Figure S2). The EC50 was reported as the AMP concentration that reduces cell viability by 50%.

[2] = tested on: baby hamster kidney cells (BHK21); assay: Cytotoxicity, alamarBlue, BHK-21 cells; type: cell-based; conditions: 2 h at 37 °C, 0.1–100 µM, alamarBlue fluorescence, non-linear fit, n ≥ 3
Procedure: as §1, §2

[3] = tested on: Micrococcus luteus (DSM20030); assay: Growth inhibition assay (MIC), M. luteus; type: cell-based; conditions: 384-well plates, LB, 30 °C, peptide 0.015–250 µM; MIC = concentration at which growth was totally inhibited; average of n ≥ 3; dash = no inhibition
Procedure: (§3) The minimal inhibitory concentration (MIC) of each AMPs was determined against the Gram-positive bacteria Listeria monocytogenes (DSM20600), L. grayi (DSM20601), L. fleischmannii (DSM24998), Staphylococcus aureus (DSM2569) and Micrococcus luteus (DSM20030), and the Gram-negative species Escherichia coli (D31) and Pseudomonas aeruginosa (DSM50071). The scorpion peptides were prepared at concentrations of 0.015–250 μM. The assays were carried out in 384-well plates (Greiner Bio One, Frickenhausen, Germany) using Brain Heart Infusion Broth (BHIB) medium for Listeria spp., Tryptic Soy Broth (TSB) for S. aureus, and lysogeny broth (LB) for the others. The bacteria were cultivated overnight at either 37 °C (Listeria spp., S. aureus, E. coli and P. aeruginosa) or 30 °C (M. luteus) and subcultured in fresh media before the growth inhibition assays. Growth inhibition was measured as previously described.

L. grayi (DSM20601) = assay: Growth inhibition assay (MIC), L. grayi; type: cell-based, Listeria grayi; conditions: 384-well plates, BHIB, 37 °C, peptide 0.015–250 µM; growth totally inhibited; average of n ≥ 3; dash = no inhibition
Procedure: as §3

[4] = tested on: Staphylococcus aureus (DSM2569); assay: Growth inhibition assay (MIC), S. aureus; type: cell-based; conditions: 384-well plates, TSB, 37 °C, peptide 0.015–250 µM; growth totally inhibited; average of n ≥ 3; dash = no inhibition
Procedure: as §3

[5] = tested on: L. fleischmannii (DSM24998); assay: Growth inhibition assay (MIC), L. fleischmannii; type: cell-based, Listeria fleischmannii; conditions: 384-well plates, BHIB, 37 °C, peptide 0.015–250 µM; growth totally inhibited; average of n ≥ 3; dash = no inhibition
Procedure: as §3

Escherichia coli (D31) = assay: Growth inhibition assay (MIC), E. coli; type: cell-based; conditions: 384-well plates, LB, 37 °C, peptide 0.015–250 µM; growth totally inhibited; average of n ≥ 3; dash = no inhibition
Procedure: as §3

[6] = tested on: Listeria monocytogenes (DSM20600); assay: Growth inhibition assay (MIC), L. monocytogenes; type: cell-based; conditions: 384-well plates, BHIB, 37 °C, peptide 0.015–250 µM; growth totally inhibited; average of n ≥ 3; dash = no inhibition
Procedure: as §3

pig erythrocytes = assay: Hemolytic activity on pig erythrocytes; type: cell-based; conditions: for HC10 (hemolytic concentration) / HC90 (hemolytic concentration) / HC50 (hemolytic concentration) / percentage of hemolysis: 1 h at 37 °C; for HC10 (hemolytic concentration) / HC90 (hemolytic concentration) / HC50 (hemolytic concentration): 6.25–100 µM, absorbance 570 nm, non-linear fit; for HC10 (hemolytic concentration) / HC90 (hemolytic concentration): n ≥ 3; for HC50 (hemolytic concentration): n ≥ 3, n.c. (100) = not convergent at 100 µM; for percentage of hemolysis: 100 µM peptide (highest tested), 10% Triton X-100 = 100% hemolysis
Procedure: The hemolytic activity of each AMP was determined using pig erythrocytes. Serial dilutions (6.25–100 µM) of each AMP were prepared, and after incubation for 1 h at 37 °C the cells were centrifuged and the absorbance of the supernatant was measured at 570 nm using an Eon Microplate Spectrophotometer (BioTek Instruments, Winooski, VT, USA). Three independent experiments were carried out for each concentration in triplicate. PBS and 10% Triton X–100 were used as negative and positive controls, respectively. The percentage hemolysis was calculated using the formula 100((Apeptide–APBS)/(Atriton–APBS)). The AMP concentration causing 50% hemolysis (HC50) of the pig erythrocytes was determined by non-linear regression with the data fitted to the logistical sigmoidal equation, using GraphPad Prism v5.0 (GraphPad Software, San Diego, CA, USA) (Figure S2).

seven different bacteria = assay: Antibacterial activity against all seven bacteria tested (summary); type: cell-based; conditions: approximate overall value
Procedure: as §3

Substance | CC50 at 2 h [1] | EC10 (effective cytotoxic concentration) [2] | EC90 (effective cytotoxic concentration) [2] | MIC M. luteus [3] | MIC L. grayi (L. grayi (DSM20601)) | MIC S. aureus [4] | MIC L. fleischmannii [5] | MIC E. coli (Escherichia coli (D31)) | MIC L. monocytogenes [6] | HC10 (hemolytic concentration) (pig erythrocytes) | HC90 (hemolytic concentration) (pig erythrocytes) | HC50 (hemolytic concentration) (pig erythrocytes) | percentage of hemolysis (pig erythrocytes) | hemolytic activity (in words) (pig erythrocytes) | MIC against all seven bacteria tested (seven different bacteria)
FFSALLSGIKSLF-NH2 [Um4] | 87 µM | 3.22 µM | 261 µM | 8 µM | 15 µM | 15 µM | 4 µM | 8 µM | 8 µM |  |  |  |  |  | 
FLSTIWNGIKGLL-NH2 [Uy192] | 52 µM | 1.92 µM | 155.90 µM | 15 µM | 15 µM | 15 µM | 4 µM | 15 µM | 8 µM | 35.85 µM | 675.22 µM | 155.6 µM |  |  | 
FLSTIWNGIKSLF-NH2 [D2] | 377 µM | 13.95 µM | 1130 µM | 4 µM |  | 8 µM | 15 µM |  | 15 µM | 2.94 µM | 200.83 µM | 24.48 µM | 64% |  | 
FPFLKLSLKIPKSAIKSAIKRL-NH2 [D10] | 141 µM | 5.24 µM | 424.30 µM | 0.25 µM | 8 µM |  | 30 µM | 8 µM | 30 µM | 149.75 µM | 19,894.17 µM | 1726 µM | ~ 10% |  | 
FPFLLSLIPSAISAIKRL-NH2 [Uy234] | 6.29 µM | 0.23 µM | 18.86 µM | 2 µM | 4 µM |  |  |  | 2 µM | 55.14 µM | 198.04 µM | 104.50 µM |  |  | 
GFWGKLLEGVKKAI-NH2 [D5] | 67.6 µM | 2.50 µM | 202.90 µM | 8 µM | 8 µM |  | 15 µM | 15 µM | 15 µM | 110.86 µM | 24,141.72 µM | 1636 µM | ~ 10% |  | 
GFWGKLWEGVKSAI-NH2 [Um3] | 63.7 µM | 2.359 µM | 191.1 µM | 2 µM | 4 µM | 15 µM | 4 µM | 15 µM | 8 µM | 70.48 µM | 246.84 µM | 126.2 µM |  |  | 
GFWGKLWKPVKKAI-NH2 [D4] | 980 µM | 36.30 µM | 2940 µM | 2 µM | 8 µM |  | 15 µM |  | 30 µM |  |  |  |  | no hemolytic activity | 
GFWKGKLWKEGVKNAIK [D12, engineered AMP based on UyCT1 but with distributed lysine residues] |  |  |  |  |  |  |  |  |  |  |  |  |  |  | totally inactive
IFGAIWSGIKSLF-NH2 [D1] | 18.6 µM | 0.69 µM | 55.75 µM | 4 µM | 8 µM |  | 4 µM | 8 µM | 4 µM | 15.50 µM | 148.51 µM | 48 µM |  |  | 
IFKAIWSGIKSLF-NH2 [Um5] | 9.71 µM | 0.36 µM | 29.12 µM | 2 µM | 2 µM |  | 2 µM | 15 µM | 2 µM | 11.944 µM | 293.90 µM | 59.25 µM |  |  | 
ILSAIWSGIKGLL-NH2 [Uy17] | 73.6 µM | 2.73 µM | 220.80 µM | 15 µM |  | 30 µM |  |  | 15 µM | 26.65 µM | 718.55 µM | 138.40 µM |  |  | 
ILSAIWSGIKSLF-NH2 [UyCT3] | 15.4 µM | 0.57 µM | 46.12 µM | 4 µM | 8 µM |  | 4 µM | 8 µM | 4 µM | 15.78 µM | 214.22 µM | 58.15 µM |  |  | 
ISQSDAILSAIWSGIKSLF-NH2 [Um2] | 15.7 µM | 0.58 µM | 47.12 µM | 4 µM |  |  |  |  |  | 2.36 µM | 7033.22 µM | 129 µM |  |  | 
IWSAIWSGIKGLL-NH2 [UyCT5] | 24.6 µM | 0.91 µM | 73.65 µM | 4 µM | 8 µM | 8 µM | 8 µM | 15 µM | 4 µM | 2.39 µM | 177.49 µM | 20.59 µM | 70% |  | 
